# Source: ChEMBL document CHEMBL1155021, “Spheciosterol sulfates, PKCzeta inhibitors from a philippine sponge Spheciospongia sp” (J Nat Prod, 2008)
# Structures can show the parent of a compound that is named as a salt.
# Biological target: T1, Protein kinase C zeta type (Homo sapiens, UniProt Q05513)
# T1 sequence (Q05513 whole entry): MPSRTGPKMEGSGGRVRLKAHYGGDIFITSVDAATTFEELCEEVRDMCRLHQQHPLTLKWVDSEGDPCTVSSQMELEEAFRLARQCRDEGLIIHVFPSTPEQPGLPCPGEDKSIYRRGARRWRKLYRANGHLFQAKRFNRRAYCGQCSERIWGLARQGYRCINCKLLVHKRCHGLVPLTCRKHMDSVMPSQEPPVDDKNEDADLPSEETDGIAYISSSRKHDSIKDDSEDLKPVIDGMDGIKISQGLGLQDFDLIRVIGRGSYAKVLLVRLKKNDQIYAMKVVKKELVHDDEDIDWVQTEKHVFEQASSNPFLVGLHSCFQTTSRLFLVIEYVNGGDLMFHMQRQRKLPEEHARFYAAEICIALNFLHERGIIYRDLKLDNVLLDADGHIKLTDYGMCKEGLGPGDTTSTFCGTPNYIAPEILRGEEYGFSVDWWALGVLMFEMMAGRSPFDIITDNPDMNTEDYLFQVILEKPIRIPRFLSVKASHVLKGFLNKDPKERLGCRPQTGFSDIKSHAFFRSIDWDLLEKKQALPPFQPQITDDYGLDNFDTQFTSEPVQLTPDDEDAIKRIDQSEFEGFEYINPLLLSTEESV
# Test: Inhibition of PKCzeta by TR-FRET based LanthaScreen assay
row,IC50 [nM],Structure (SMILES)
1,110,C=C(C)C(C)(C)C(C)CC[C@@H](C)[C@H]1CC[C@@]2(C)[C@@H]3C[C@H](OS(=O)(=O)O)[C@H]4[C@@H](O)[C@H](OS(=O)(=O)O)[C@@H](OS(=O)(=O)O)C[C@]4(C)C3=CC[C@]12C (some centres undefined) [SPHECIOSTEROL SULFATE C]
2,1210,CC(C)C1(CC[C@@H](C)[C@H]2CC[C@@]3(C)[C@@H]4C[C@H](OS(=O)(=O)O)[C@H]5[C@@H](O)[C@H](OS(=O)(=O)O)[C@@H](OS(=O)(=O)O)C[C@]5(C)C4=CC[C@]23C)CC1C (some centres undefined) [TOPSENTIASTEROL SULFATE E]
3,1590,C=C(C)C(CC)CC[C@@H](C)[C@H]1CC[C@@]2(C)[C@@H]3C[C@H](OS(=O)(=O)O)[C@H]4[C@@H](O)[C@H](OS(=O)(=O)O)[C@@H](OS(=O)(=O)O)C[C@]4(C)C3=CC[C@]12C (some centres undefined) [SPHECIOSTEROL SULFATE A]
4,530,C=C(C)C(CC[C@@H](C)[C@H]1CC[C@@]2(C)[C@@H]3C[C@H](OS(=O)(=O)O)[C@H]4[C@@H](O)[C@H](OS(=O)(=O)O)[C@@H](OS(=O)(=O)O)C[C@]4(C)C3=CC[C@]12C)C(C)C (some centres undefined) [SPHECIOSTEROL SULFATE B]
